From US10064838B2, “Method for treating tau-associated diseases using tetrahydropyranol derivatives” (NATIONAL TAIWAN NORMAL UNIVERSITY, priority 2016, dated 2018)

What was measured:
[1] = Cytotoxicity in 293 cells expressing ΔK280 tauRD-DsRed fusion protein; assay type: cell-based; settings: human, ΔK280 tauRD-DsRed 293 cells
[2] = MTT cytotoxicity in HEK-293 cells; assay type: cell-based; settings: human, 24 h treatment, read-out: half maximal inhibitory concentration (IC50), cytotoxicity
Method: (§1) The HEK-293 cells and SH-SY5Y cells were seeded into a 48-well plate (5×10^4), grown for 24 h, and treated with 0.1 μM, 1 μM, 10 μM, 100 μM of compound (A), compound (B), or compound (C) individually for 24 h. Then 20 μL of MTT (5 mg/mL dissolved in PBS) was added for 2 h and the full wavelength microplate spectrophotometer was used for detecting the absorbance of the purple formazan at 570 nm.
(§2) As a result, the cytotoxicities of compound (A), compound (B), and compound (C) are low and not harmful to the cells.

[3] = MTT cytotoxicity in SH-SY5Y cells; assay type: cell-based; settings: human, 24 h treatment, read-out: half maximal inhibitory concentration (IC50), cytotoxicity
Method: as §1, §2

ΔK280 tauRD-DsRed = target: T1, ΔK280 tauRD-DsRed (Homo sapiens, UniProt P10636, DEL597-597); assay: Inhibition of ΔK280 tauRD-DsRed aggregation (DsRed fluorescence, high content analysis); assay type: cell-based; settings: 8 h pretreatment, Dox 3 days, ΔK280 tauRD-DsRed 293 cells
T1 construct: tauRD: Gln^244-Glu^372 of the longest tau^441 isoform; expressed in transfected cells; host or cells: HEK-293 (Tet-On, doxycycline-induced)
T1 sequence (P10636 with tags, fused parts or gaps isoform P10636-8 DEL280-280): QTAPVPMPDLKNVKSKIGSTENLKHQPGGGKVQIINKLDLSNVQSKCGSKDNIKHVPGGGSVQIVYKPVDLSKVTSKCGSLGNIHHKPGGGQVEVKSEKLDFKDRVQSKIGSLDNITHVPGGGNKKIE
Description: We used human embryonic kidney HEK-293 (cultured with DMEM supplemented with 10% FBS) and neuroblastoma SH-SY5Y (cultured with DMEM F12 supplemented with 10% FBS) cells expressing a DsRed-tagged pro-aggregation mutant (ΔK280) of the C-terminal repeat domain of tau (tauRD: Gln^244-Glu^372 of the longest tau^441 isoform). The recombinant tauRD-DsRed construct was under the control of a hybrid human cytomegalovirus (CMV)/TetO2 promoter that can be induced by adding doxycycline. The Tet-On ΔK280 tauRD-DsRed 293 and SH-SY5Y cells were grown in medium containing blasticidin (5 μg/mL) and hygromycin (100 μg/mL) and were used for the following evaluation.
ΔK280 tauRD-DsRed 293 cells were seeded into 96-well plates, grown for 24 h, and pretreated with 0.1, 1, 10 μM of congo red (a known tau aggregation inhibitor), compound (A), compound (B), and compound (C) for 8 h. Then doxycycline (Dox; 1 μg/mL) was added for 3 days to induce ΔK280 tauRD-DsRed expression and DsRed fluorescence was assessed using a high content analysis (HCA) system.
The DsRed fluorescence of ΔK280 tauRD-DsRed fusion protein was used to reflect the aggregation condition of ΔK280 tauRD. Misfolding of fused DsRed occurred when ΔK280 tauRD aggregated, and thus decreasing the DsRed fluorescence. Accordingly, inhibition of ΔK280 tauRD aggregation may improve the DsRed misfolding and increase DsRed fluorescence.

[4] = tested on: ΔK280 tauRD-DsRed 293 cells; assay: ROS level (DCFH-DA, flow cytometry) in induced ΔK280 tauRD-DsRed 293 cells; assay type: cell-based, human; settings: 10 μM, 8 h pretreatment, Dox 3 days
Method: (§3) ΔK280 tauRD-DsRed 293 cells were seeded into 12-well plates, grown for 24 h, and pretreated with 10 μM of congo red, compound (A), compound (B), and compound (C) respectively for 8 h. Then, doxycycline (1 μg/mL) was added for 3 days to induce ΔK280 tauRD-DsRed expression.
Next, uninduced cells, doxycycline-induced but compound-untreated cells, and doxycycline-induced and compound-treated cells were incubated with 2′,7′-dichlorodihydrofluorecein diacetate (DCFH-DA) in 37° C. for 30 minutes, and then washed with PBS. The excited green fluorescence intensity under 492-495/517-527 nm of excitation/emission wavelength was measured using flow cytometry (BD) to evaluate the ROS level.

caspase 3 = assay: Caspase 3 activity (Ac-DEVD-AMC) in induced ΔK280 tauRD-DsRed 293 cells; assay type: cell-based, human; settings: 10 μM, 8 h pretreatment, Dox 3 days
Method: as §3
In addition, the caspase 3 activity of uninduced cells, doxycycline-induced but compound-untreated cells, and doxycycline-induced and compound-treated cells were measured using Caspase 3 Assay Kit (Sigma). 10^6 cells in each group were harvested and 100 μL of lysis buffer was added, incubated on the ice for 20 minutes, and then, Ac-DEVD-AMC substrate was added into each group. The release of the fluorescent AMC was recorded under 360/460 nm of excitation/emission wavelength using an FLx800 microplate fluorescence reader (Bio-Tek). The caspase 3 activity was calculated using an AMC standard curve.

[5] = tested on: ΔK280 tauRD-DsRed SH-SY5Y cells; assay: Neurite growth in induced ΔK280 tauRD-DsRed SH-SY5Y cells; assay type: cell-based, human; settings: 10 μM, 8 h pretreatment, Dox 7 days, retinoic acid-differentiated
Method: ΔK280 tauRD-DsRed SH-SY5Y tauRD-DsRed cells were seeded in 6-well plate (1×10^5/well) in a medium containing all-trans retinoic acid (10 μM), grown for 24 h, and pretreated with 10 μM of congo red, compound (A), compound (B), and compound (C) for 8 h; after which, ΔK280 tauRD-DsRed expression was induced with 1 μg/mL doxycycline for 7 days. The cells were then fixed in 4% paraformaldehyde, permeabilized with 0.1% Triton X-100, blocked in 3% BSA, stained with the primary antibody anti-TUBB3 (against neuronal Class III β-tubulin) (1:1000; Convance) and with a secondary anti-rabbit Alexa Fluor® 555 antibody (1:500; Molecular Probes), and then incubated at room temperature for 3 h. Nuclei were counterstained with 4′,6-diamidino-2-phenylindole (DAPI). The total outgrowth in the untreated cells, cells treated with congo red, compound (A), compound (B), and compound (C) were assessed using MetaMorph image acquisition and analysis software.

DsRed fluorescence intensity relative to untreated cells (100%) (ΔK280 tauRD-DsRed; 1-10 μM)	DsRed fluorescence intensity relative to untreated cells (100%) (ΔK280 tauRD-DsRed; 10 μM)	Structure (SMILES)	IC50 at 80 h [1]	IC50 at 24 h [2]	IC50 at 24 h [3]	ROS level (uninduced cells 100%; induced untreated 110%) [4]	caspase 3 activity (uninduced cells 100%; induced untreated 129%) (caspase 3)	neurite growth (uninduced cells 100%; induced untreated 89%) [5]
106-113%	–	CCOC(=O)[C@@H]1OC(O)[C@H](C)[C@@H](c2ccccc2)[C@@H]1[N+](=O)[O-] (some centres unmarked) [compound (C)]	42 µM	135 µM	275 µM	–	–	–
–	111%	CCOC(=O)[C@@H]1OC(O)[C@H](C)[C@@H](c2cccs2)[C@@H]1[N+](=O)[O-] (some centres unmarked) [compound (B)]	42 µM	135 µM	273 µM	–	–	–
–	108%	Nc1c(/N=N/c2ccc(-c3ccc(/N=N/c4cc(S(=O)(=O)O)c5ccccc5c4N)cc3)cc2)cc(S(=O)(=O)O)c2ccccc12 [congo red]	60 µM	–	–	93%	63%	99%
105-110%	–	CCOC(=O)[C@@H]1OC(O)[C@H](C)[C@@H](c2ccc(OC)cc2)[C@@H]1[N+](=O)[O-] (some centres unmarked) [compound (A)]	32 µM	128 µM	267 µM	–	–	–
